molecular target: PHD-bromodomain of TRIM24 (Homo sapiens (Human), UniProt O15164); assay: TRIM24 binding alpha assay; conditions: Alpha Assay binding to TRIM24; compounds 50 μM to 0.002 μM
Description: The alpha TRIM24 binding assay is used to assess the binding of the compounds of the application. Compounds are added at various concentrations as well as a vehicle control. Compounds that bind to TRIM24 compete away the interaction between the PHD-bromodomain of TRIM24 bound to the donor bead, and the H3K23ac histone peptide bound to the acceptor bead, which causes a decrease in signal. IC50 values are calculated.
The alpha assay was used to assess the binding of the compounds of the application to TRIM24 at various concentrations. All compounds were added at concentrations from 50 μM to 0.002 μM. Compounds that bind to TRIM24 compete with the PHD-bromodomain of TRIM24 in interacting with the donor bead, and the H3K23ac histone peptide bound to the acceptor bead, which causes a decrease in signal. IC50 values were calculated by using Graphpad PRISM's log(inhibitor) vs. response—variable slope (four parameters).

Sequence of PHD-bromodomain of TRIM24 (O15164 824-1006): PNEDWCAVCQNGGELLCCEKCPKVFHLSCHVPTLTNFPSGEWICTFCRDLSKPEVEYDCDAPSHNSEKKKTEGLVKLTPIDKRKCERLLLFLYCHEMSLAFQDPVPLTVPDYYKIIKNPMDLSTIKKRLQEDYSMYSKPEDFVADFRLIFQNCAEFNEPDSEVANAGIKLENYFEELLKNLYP

IC50 [µM] | Compound
> 0.5 | COc1ccc(Oc2cc3c(cc2NS(=O)(=O)c2ccc(OC)c(OC)c2)n(C)c(=O)n3C)cc1 [Cmpd A, reference compound]
0.05 to 0.1 | COc1ccc(S(=O)(=O)Nc2cc3c(cc2Oc2cccc(OCc4ccccc4)c2)n(C)c(=O)n3C)cc1OC [Cmpd B, reference compound]
< 0.05 | Cc1nc(S(=O)(=O)Nc2cc3c(cc2Oc2cccc(OCC(C)C)c2)n(C)c(=O)n3C)cn1C [Cmpd C, reference compound]
< 0.05 | CCCOc1cccc(Oc2cc3c(cc2NS(=O)(=O)c2ccc(OC)c(OC)c2)n(C)c(=O)n3C)c1 [Cmpd D, reference compound]
0.1 to 0.5 | CCCOc1cccc(Oc2cc3c(cc2NS(=O)(=O)c2cccc(C(=O)NCCCCNC(=O)CC45CC6CC(CC(C6)C4)C5)c2)n(C)c(=O)n3C)c1 [Cmpd E, reference compound]
> 0.5 | COc1ccc(S(=O)(=O)Nc2cc3c(cc2Oc2ccc(OCC(=O)NCCCCNC(=O)COc4cccc5c4C(=O)N(C4CCC(=O)NC4=O)C5=O)cc2)n(C)c(=O)n3C)cc1OC (centres unmarked) [I-A1, 2-(4-((6-((3,4-dimethoxyphenyl)sulfonamido)-1,3-dimethyl-2-oxo-2,3-dihydro-1H-benzo[d]imidazol-5-yl)oxy)phenoxy)-N-(4-(2-((2-(2,6-dioxopiperidin-3-yl)-1,3-dioxoisoindolin-4-yl)oxy)acetamido)butyl)acetamide]
> 0.5 | COc1ccc(S(=O)(=O)Nc2cc3c(cc2Oc2ccc(OCC(=O)NCCCCCCCCNC(=O)COc4cccc5c4C(=O)N(C4CCC(=O)NC4=O)C5=O)cc2)n(C)c(=O)n3C)cc1OC (centres unmarked) [I-A2, 2-(4-((6-((3,4-dimethoxyphenyl)sulfonamido)-1,3-dimethyl-2-oxo-2,3-dihydro-1H-benzo[d]imidazol-5-yl)oxy)phenoxy)-N-(8-(2-((2-(2,6-dioxopiperidin-3-yl)-1,3-dioxoisoindolin-4-yl)oxy)acetamido)octyl)acetamide]
> 0.5 | COc1ccc(S(=O)(=O)Nc2cc3c(cc2Oc2ccc(OCC(=O)NCCCOCCOCCOCCCNC(=O)COc4cccc5c4C(=O)N(C4CCC(=O)NC4=O)C5=O)cc2)n(C)c(=O)n3C)cc1OC (centres unmarked) [I-A3, 2-(4-((6-((3,4-dimethoxyphenyl)sulfonamido)-1,3-dimethyl-2-oxo-2,3-dihydro-1H-benzo[d]imidazol-5-yl)oxy)phenoxy)-N-(1-((2-(2,6-dioxopiperidin-3-yl)-1,3-dioxoisoindolin-4-yl)oxy)-2-oxo-7,10,13-trioxa-3-azahexadecan-16-yl)acetamide]
0.05 to 0.1 | CCCOc1cccc(Oc2cc3c(cc2NS(=O)(=O)c2cccc(C(=O)NCCCCNC(=O)COc4cccc5c4C(=O)N(C4CCC(=O)NC4=O)C5=O)c2)n(C)c(=O)n3C)c1 (centres unmarked) [I-A4, 3-(N-(1,3-dimethyl-2-oxo-6-(3-propoxyphenoxy)-2,3-dihydro-1H-benzo[d]imidazol-5-yl)sulfamoyl)-N-(4-(2-((2-(2,6-dioxopiperidin-3-yl)-1,3-dioxoisoindolin-4-yl)oxy)acetamido)butyl)benzamide]
0.1 to 0.5 | CCCOc1cccc(Oc2cc3c(cc2NS(=O)(=O)c2cccc(C(=O)NCCCCCCCCNC(=O)COc4cccc5c4C(=O)N(C4CCC(=O)NC4=O)C5=O)c2)n(C)c(=O)n3C)c1 (centres unmarked) [I-A5, 3-(N-(1,3-dimethyl-2-oxo-6-(3-propoxyphenoxy)-2,3-dihydro-1H-benzo[d]imidazol-5-yl)sulfamoyl)-N-(8-(2-((2-(2,6-dioxopiperidin-3-yl)-1,3-dioxoisoindolin-4-yl)oxy)acetamido)octyl)benzamide]
< 0.05 | CCCOc1cccc(Oc2cc3c(cc2NS(=O)(=O)c2cccc(C(=O)NCCCOCCOCCOCCCNC(=O)COc4cccc5c4C(=O)N(C4CCC(=O)NC4=O)C5=O)c2)n(C)c(=O)n3C)c1 (centres unmarked) [I-A6, 3-(N-(1,3-dimethyl-2-oxo-6-(3-propoxyphenoxy)-2,3-dihydro-1H-benzo[d]imidazol-5-yl)sulfamoyl)-N-(1-((2-(2,6-dioxopiperidin-3-yl)-1,3-dioxoisoindolin-4-yl)oxy)-2-oxo-7,10,13-trioxa-3-azahexadecan-16-yl)benzamide]
> 0.5 | Cc1nc(S(=O)(=O)Nc2cc3c(cc2Oc2cccc(OCC(=O)NCCCCNC(=O)COc4cccc5c4C(=O)N(C4CCC(=O)NC4=O)C5=O)c2)n(C)c(=O)n3C)cn1C (centres unmarked) [I-A7, 2-(3-((6-((1,2-dimethyl-1H-imidazole)-4-sulfonamido)-1,3-dimethyl-2-oxo-2,3-dihydro-1H-benzo[d]imidazol-5-yl)oxy)phenoxy)-N-(4-(2-((2-(2,6-dioxopiperidin-3-yl)-1,3-dioxoisoindolin-4-yl)oxy)acetamido)butyl)acetamide]
> 0.5 | Cc1nc(S(=O)(=O)Nc2cc3c(cc2Oc2cccc(OCC(=O)NCCCCCCCCNC(=O)COc4cccc5c4C(=O)N(C4CCC(=O)NC4=O)C5=O)c2)n(C)c(=O)n3C)cn1C (centres unmarked) [I-A8, 2-(3-((6-((1,2-dimethyl-1H-imidazole)-4-sulfonamido)-1,3-dimethyl-2-oxo-2,3-dihydro-1H-benzo[d]imidazol-5-yl)oxy)phenoxy)-N-(8-(2-((2-(2,6-dioxopiperidin-3-yl)-1,3-dioxoisoindolin-4-yl)oxy)acetamido)octyl)acetamide]
> 0.5 | Cc1nc(S(=O)(=O)Nc2cc3c(cc2Oc2cccc(OCC(=O)NCCCOCCOCCOCCCNC(=O)COc4cccc5c4C(=O)N(C4CCC(=O)NC4=O)C5=O)c2)n(C)c(=O)n3C)cn1C (centres unmarked) [I-A9, 2-(3-((6-((1,2-dimethyl-1H-imidazole)-4-sulfonamido)-1,3-dimethyl-2-oxo-2,3-dihydro-1H-benzo[d]imidazol-5-yl)oxy)phenoxy)-N-(1-((2-(2,6-dioxopiperidin-3-yl)-1,3-dioxoisoindolin-4-yl)oxy)-2-oxo-7,10,13-trioxa-3-azahexadecan-16-yl)acetamide]
0.1 to 0.5 | CCCOc1cccc(Oc2cc3c(cc2NS(=O)(=O)c2cccc(C(=O)NCCOCCOCCOc4cc(-c5scnc5C)ccc4CNC(=O)[C@@H]4C[C@@H](O)CN4C(=O)[C@H](C(C)C)N4Cc5ccccc5C4=O)c2)n(C)c(=O)n3C)c1 [I-B1, (2S,4R)—N-(2-(2-(2-(2-(3-(N-(1,3-dimethyl-2-oxo-6-(3-propoxyphenoxy)-2,3-dihydro-1H-benzo[d]imidazol-5-yl)sulfamoyl)benzamido)ethoxy)ethoxy)ethoxy)-4-(4-methylthiazol-5-yl)benzyl)-4-hydroxy-1-((S)-3-methyl-2-(1-oxoisoindolin-2-yl)butanoyl)pyrrolidine-2-carboxamide]
< 0.05 | CCCOc1cccc(Oc2cc3c(cc2NS(=O)(=O)c2cccc(C(=O)NCCOCCOCC(=O)N[C@H](C(=O)N4C[C@H](O)C[C@H]4C(=O)NCc4ccc(-c5scnc5C)cc4)C(C)(C)C)c2)n(C)c(=O)n3C)c1 [I-B2, (4R)-1-((S)-12-(tert-butyl)-1-(3-(N-(1,3-dimethyl-2-oxo-6-(3-propoxyphenoxy)-2,3-dihydro-1H-benzo[d]imidazol-5-yl)sulfamoyl)phenyl)-1,10-dioxo-5,8-dioxa-2,11-diazatridecan-13-oyl)-4-hydroxy-N-(4-(4-methylthiazol-5-yl)benzyl)pyrrolidine-2-carboxamide]

Compound | IC50 [µM]
CCCOc1cc(OCCCCN(C)C)cc(Oc2cc3c(cc2NS(=O)(=O)c2cccc(C(=O)NCCCCNC(=O)COc4cccc5c4C(=O)N(C4CCC(=O)NC4=O)C5=O)c2)n(C)c(=O)n3C)c1 (centres unmarked) [I-A10, 3-(N-(6-(3-(4-(dimethylamino)butoxy)-5-propoxyphenoxy)-1,3-dimethyl-2-oxo-2,3-dihydro-1H-benzo[d]imidazol-5-yl)sulfamoyl)-N-(4-(2-((2-(2,6-dioxopiperidin-3-yl)-1,3-dioxoisoindolin-4-yl)oxy)acetamido)butyl)benzamide] | < 0.05
CCCOc1cc(OCCCCN(C)C)cc(Oc2cc3c(cc2NS(=O)(=O)c2cccc(C(=O)NCCCCCCCCNC(=O)COc4cccc5c4C(=O)N(C4CCC(=O)NC4=O)C5=O)c2)n(C)c(=O)n3C)c1 (centres unmarked) [I-A11, 3-(N-(6-(3-(4-(dimethylamino)butoxy)-5-propoxyphenoxy)-1,3-dimethyl-2-oxo-2,3-dihydro-1H-benzo[d]imidazol-5-yl)sulfamoyl)-N-(8-(1-((2-(2,6-dioxopiperidin-3-yl)-1,3-dioxoisoindolin-4-yl)oxy)acetamido)octyl)benzamide] | < 0.05
CCCOc1cc(OCCCCN(C)C)cc(Oc2cc3c(cc2NS(=O)(=O)c2cccc(C(=O)NCCCOCCOCCOCCCNC(=O)COc4cccc5c4C(=O)N(C4CCC(=O)NC4=O)C5=O)c2)n(C)c(=O)n3C)c1 (centres unmarked) [I-A12, 3-(N-(6-(3-(4-(dimethylamino)butoxy)-5-propoxyphenoxy)-1,3-dimethyl-2-oxo-2,3-dihydro-1H-benzo[d]imidazol-5-yl)sulfamoyl)-N-(1-((2-(2,6-dioxopiperidin-3-yl)-1,3-dioxoisoindolin-4-yl)oxy)-2-oxo-7,10,13-trioxa-3-azahexadecan-16-yl)benzamide] | < 0.05
CCCOc1cc(OCCCCN(C)C)cc(Oc2cc3c(cc2NS(=O)(=O)c2cccc(C(=O)NCCOCCOCCOCC(=O)N[C@H](C(=O)N4C[C@H](O)C[C@H]4C(=O)NCc4ccc(-c5scnc5C)cc4)C(C)(C)C)c2)n(C)c(=O)n3C)c1 [I-B4, (2S,4R)-1-((S)-15-(tert-butyl)-1-(3-(N-(6-(3-(4-(dimethylamino)butoxy)-5-propoxyphenoxy)-1,3-dimethyl-2-oxo-2,3-dihydro-H-benzo[d]imidazol-5-yl)sulfamoyl)phenyl)-1,13-dioxo-5,8,11-trioxa-2,14-diazahexadecan-16-oyl)-4-hydroxy-N-(4-(4-methylthiazol-5-yl)benzyl)pyrrolidine-2-carboxamide] | < 0.05

— patent publication US10702504B2, “Degradation of tripartite motif-containing protein 24 (TRIM24) by conjugation of TRIM24 inhibitors with E3 ligase ligand and methods of use” (Dana-Farber Cancer Institute, Inc., priority 2016, dated 2020)
